From patent US8030518B2, “1,4 diamino bicyclic retigabine analogues as potassium channel modulators” (Valeant Pharmaceuticals International, priority 2006, dated 2011)

Legend:
[1] = system: maximal electroshock seizure; experiment: rat maximal electroshock seizure (MES) test; type: in vivo
Text: (§1) The MES testing protocol is based on procedures established at the National Institute of Neurological Disorders and Stroke in conjunction with the Anticonvulsant Screening Program (ASP) at the University of Utah (White, H. S., Woodhead, J. H., Wilcox, K. S., Stables, J. P., Kupferberg, H. J and Wolf, H. H. 2002. “General Principles: Discovery and Preclinical Development of Antiepileptic Drugs,” in Antiepileptic Drugs, 5th Edition, R. H. Levy, ed.; R. H. Mattson, B. S. Meldrum, and E. Perucca. Philadelphia, Lippincott Williams & Wilkins.), The goal of the test is to rapid identify and characterize the in vivo anticonvulsant activity of any compounds that have been shown active in PC-12 cellular based Rb^+ efflux assay.
(§2) Adult male CF-1 albino mice (18-25 g, Charles River Laboratories) are […] used for MES screening of compounds. Male Sprague-Dawley albino rats (100-125 g, Charles River Laboratories) are also used to test anticonvulsant compounds. Animals are permitted to rest and recover from transit for at least 48 hr prior to experimentation. Animals are used for AED testing only once. In some instances, the animals can be anesthetized prior to blood collection or whole brain extraction for pharmacokinetic assay. All animals are maintained and handled as outlined in standard animal care guidelines.
In the experiments, testing compounds are prepared as suspensions in 0.5% methyl cellulose (Sigma, Cat # M0512, Viscosity 4000 cP at 20° C.) in water, regardless of solubility. Dry powder compounds are initially ground with a glass rod in a test tube in several drops of methyl cellulose to create a paste and to break down any large chunks. After several minutes of grinding, the volume of the suspension is increased to the final concentration desired. The suspension is then sonicated using a Branson sonicator model 3510 in a water bath at room temperature for 15 minutes. Compound suspensions are further vortexed prior to animal dosing. In some of the cases, DMSO is used to initially solubilize compounds in small volumes and then this solution is added to the 0.5% methyl cellulose solution, in order to create more even and less aggregated compound suspensions. The final concentration of DMSO is 3.75%, an amount with no apparent toxicity or neuroprotective effects in our usual rotarod and MES tests. Methyl cellulose/DMSO compound suspensions are identically prepared for intraperitoneally (i.p.)dosing to mice or orally (p.o.) dosing to rats. […]
A Rodent Electroconvulsive Stimulator (Model 200, Hamit-Darvin-Freesh, Snow Canyon Clinic, Ivins, Utah) is used for MES testing. […] Animals are monitored for hind limb tonic extension as the end point for this test. Current delivery is recorded as a measure of overall seizure-induction potential. […]

[2] = system: maximal electroshock seizure; experiment: mouse maximal electroshock seizure (MES) test; type: in vivo; set-up: key: A: active; B: inactive; conditions: ip dosing of 12.5 mg/kg
Text: as §1, §2
In the experiments, testing compounds are prepared as suspensions in 0.5% methyl cellulose (Sigma, Cat # M0512, Viscosity 4000 cP at 20° C.) in water, regardless of solubility. Dry powder compounds are initially ground with a glass rod in a test tube in several drops of methyl cellulose to create a paste and to break down any large chunks. After several minutes of grinding, the volume of the suspension is increased to the final concentration desired. The suspension is then sonicated using a Branson sonicator model 3510 in a water bath at room temperature for 15 minutes. Compound suspensions are further vortexed prior to animal dosing. In some of the cases, DMSO is used to initially solubilize compounds in small volumes and then this solution is added to the 0.5% methyl cellulose solution, in order to create more even and less aggregated compound suspensions. The final concentration of DMSO is 3.75%, an amount with no apparent toxicity or neuroprotective effects in our usual rotarod and MES tests. Methyl cellulose/DMSO compound suspensions are identically prepared for intraperitoneally (i.p.)dosing to mice or orally (p.o.) dosing to rats.
Initially the animals are weighed with an electronic scale and then marked. Data recording sheets are generated for each compound assessment. Mice or rats are dosed with the compound suspension at 0.01 mL/g of body weight. The typical injection volume range is between 180-250 μl for mice. Compounds are dosed by i.p. to mice using a 25 or 22 gauge needle, depending on the viscosity of the suspension. Rats are p.o. dosed using a flexible feeding tube, typically starting at a compound dose of 5 mg/kg.
A Rodent Electroconvulsive Stimulator (Model 200, Hamit-Darvin-Freesh, Snow Canyon Clinic, Ivins, Utah) is used for MES testing. A 60-Hz alternating current (50 mA for mice; 150 mA for rats) is delivered for 0.2 seconds through corneal electrodes to the mice. A drop of 0.5% tetracaine (Sigma, Cat. # T-7508) solution is placed on the eye prior to current delivery. The electrodes are subsequently placed gently onto the eyes of the animal and the electrical shock is initiated by triggering through a foot-pedal activator. The animals are restrained by hand and gently released as the shock is delivered and the seizure commences. Animals are monitored for hind limb tonic extension as the end point for this test. Current delivery is recorded as a measure of overall seizure-induction potential. Electrical current delivery can vary from approximately 30-55 mA (mice) or 90-160 mA (rats) depending on impedance in the animal and quality of the current delivery (i.e. correct placement of the electrodes on the cornea). […]

KCNQ2/3 heteromultimers = biological target: T1, KCNQ2/3 heteromultimers (Rattus norvegicus, UniProt O88943+O88944); experiment: cell-based Rb+ efflux assay in PC-12 cells; conditions: Rb+ efflux cellular assay
T1 construct: endogenous in cells; host or cells: PC-12 cells differentiated with NGF-7s; no transfection described
Experimental: Compounds of this invention formula were evaluated for activity toward potassium channels in a cell-based Rb^+ efflux assay. This cellular bioassay is believed to faithfully represent the M channel activities identified with KCNQ2/3 heteromultimers. […] Additionally, antiseizure activity in vivo was evaluated in a mouse maximal electroshock seizure (MES) model, and neurotoxicities were determined from a rotorod neurocognitive motor impairment model and open field observation.
PC-12 cells were grown at 37° C. and 5% CO2 in DMEM/F12 Medium (Dulbecco's Modified Eagle Medium with Nutrient Mix F-12, available from Invitrogen of Carlsbad, Calif.), supplemented with 10% horse serum, 5% fetal bovine serum, 2 mM glutamine, 100 U/ml penicillin, and 100 U/ml streptomycin. They were plated in poly-D-lysine-coated 96-well cell culture microplates at a density of 40,000 cells/well and differentiated with 100 ng/ml NGF-7s for 2-5 days. For the assay, the medium was aspirated, and the cells were washed once with 0.2 ml wash buffer (25 mM HEPES, pH 7.4, 150 mM NaCl, 1 mM MgCl2, 0.8 mM NaH2PO4, 2 mM CaCl2). The cells were then loaded with 0.2 ml Rb^+ loading buffer (wash buffer plus 5.4 mM […], 5 mM glucose) and incubated at 37° C. for 2 h. Attached cells were washed quickly three times with buffer (same as Rb^+ loading buffer, but containing 5.4 mM KCl instead of RbCl) to remove extracellular Rb^+. Immediately following the wash, 0.2 ml of depolarization buffer (wash buffer plus 15 mM KCl solution) with or without compounds was added to the cells to activate efflux of potassium ion channels. After incubation for 10 min at room temperature, the supernatant was carefully removed and collected. Cells were lysed by the addition of 0.2 ml of lysis buffer (depolarization buffer plus 0.1% Triton X-100) and the cell lysates were also collected. If collected samples were not immediately analyzed for Rb^+ contents by atomic absorption spectroscopy (see below), they were stored at 4° C. without any negative effects on subsequent Rb^+ analysis.
The concentrations of Rb^+ in the supernatants (Rb^+Sup) and the cell lysates (Rb^+Lys) were quantified using an ICR8000 flame atomic absorption spectrometer (Aurora Biomed Inc., Vancouver, B.C.) under conditions defined by the manufacturer. Samples 0.05 ml in volume were processed automatically from microtiter plates by dilution with an equal volume of Rb^+ sample analysis buffer and injection into an air-acetylene flame. The amount of Rb^+ in the sample was measured by absorption at 780 nm using a hollow cathode lamp as light source and a PMT detector. A calibration curve covering the range 0-5 mg/L Rb^+ in sample analysis buffer was generated with each set of plates. The percent Rb^+ efflux (F) was defined by F=[Rb^+Sup/(Rb^+Sup+Rb^+Lys)]×100%. […] The efflux (F) and compound concentration relationship was plotted to calculate an EC50 value, a compound's concentration for 50% of maximal Rb^+ efflux. Seizure Model Tests

Row | SMILES | ED50 [1] | Mouse MES test [2] | EC50 (KCNQ2/3 heteromultimers)
1 | Cc1cc2c(c(C)c1NC(=O)CC(C)(C)C)CCC2Nc1ccc(F)cc1 (single isomer, unassigned; (-)) [Example 12, (−) N-(1-(4-fluorophenylamino)-4,6-dimethyl-2,3-dihydro-1H-inden-5-yl)-3,3-dimethylbutanamide] | < 20 mg/kg | A | ≤ 1 nM
2 | Cc1cc2c(c(C)c1NC(=O)CC(C)(C)C)CCC2Nc1ccc(F)cc1 (stereo not shown) [Example 11, N-(1-(4-fluorophenylamino)-4,6-dimethyl-2,3-dihydro-1H-inden-5-yl)-3,3-dimethylbutanamide] | < 20 mg/kg | A | 1 to 10 nM
3 | Cc1cc2c(c(C)c1NC(=O)CC(C)(C)C)CCC2Nc1ccc(C(F)(F)F)cc1 (stereo not shown) [Example 14, N-(4,6-dimethyl-1-(4-(trifluoromethyl)phenylamino)-2,3-dihydro-1H-inden-5-yl)-3,3-dimethylbutanamide] | < 20 mg/kg | A | 1 to 10 nM
4 | Cc1cc2c(c(C)c1NC(=O)CC(C)(C)C)CCC2Nc1ccc(C(F)(F)F)cc1 (single isomer, unassigned; (-)) [Example 15, (−) N-(4,6-dimethyl-1-(4-(trifluoromethyl)phenylamino)-2,3-dihydro-1H-inden-5-yl)-3,3-dimethylbutanamide] | < 20 mg/kg | A | ≤ 1 nM
5 | Cc1cc2c(c(C)c1NC(=O)CC(C)(C)C)CCC2Nc1ccc(C(F)(F)F)nc1 (stereo not shown) [Example 24, N-(1-(6-trifluoromethylpyridin-3-ylamino)-4,6-dimethyl-2,3-dihydro-1H-inden-5-yl)-3,3-dimethylbutanamide] |  | A | 10 to 50 nM
6 | Cc1cc2c(c(C)c1NC(=O)CC(C)(C)C)CCC2Nc1cccc(Cl)c1 (stereo not shown) [Example 19, N-(4,6-dimethyl-1-(3-chlorophenylamino)-2,3-dihydro-1H-inden-5-yl)-3,3-dimethylbutanamide] |  | A | 1 to 10 nM
